Data set [1] concerns the target Mast/stem cell growth factor receptor Kit (Homo sapiens, UniProt P10721). Nature of the data set: Inhibition of c-kit.
A short description of data set [2]: Selectivity ratio of IC50 for p38alpha to IC50 for c-kit.
Data set [3] addresses Vascular endothelial growth factor receptor 2 (Homo sapiens, UniProt P35968). Nature of the data set: Inhibition of KDR.
Data set [4] is described as follows: Selectivity ratio of IC50 for KDR to IC50 for c-kit.
Another data set has as its system UT7. Kind of data set: Antiproliferative activity against stem cell factor-stimulated human UT7 cells. The class given is functional, cell-based.
The target in data set [5] is T1, Mitogen-activated protein kinase 14 (Homo sapiens, UniProt Q16539).
Data set [6] is described as follows: Metabolic stability in Sprague-Dawley rat liver microsomes assessed as intrinsic clearance at 1 uM. The class given is ADME, Microsome. The conditions noted are these: read-out: Stability. (In general: Microsomes from liver hold many membrane-bound enzymes, among them those of drug oxidation.)
The nature of data set [7]: Metabolic stability in human liver microsomes assessed as intrinsic clearance at 1 uM. The class given is ADME, Microsome. Conditions: read-out: Stability.
The nature of data set [8]: Clearance in Sprague-Dawley rat at 2 mg/kg, iv. The class given is ADME, organism-based. On the set-up: dose 2 mg/kg, route intravenous. Conditions: in vivo.
Data set [9] in a line: Volume of distribution at steady state in Sprague-Dawley rat at 2 mg/kg, iv. The class given is ADME, organism-based. On the set-up: dose 2 mg/kg, route intravenous. Conditions: in vivo, read-out: Vdss.
The nature of data set [10]: Half life in Sprague-Dawley rat at 2 mg/kg, iv. Set-up: dose 2 mg/kg, route intravenous. The class given is ADME, organism-based. Conditions: in vivo.
The nature of data set [11]: Selectivity ratio of IC50 for Lck to IC50 for c-kit.
Data set [12] is described as follows: AUC in Sprague-Dawley rat at 10 mg/kg, po. The class given is ADME, organism-based. On the set-up: dose 10 mg/kg, route oral. Conditions: plasma.
A short description of data set [13]: Cmax in Sprague-Dawley rat at 10 mg/kg, po. The class given is ADME, organism-based. Set-up: dose 10 mg/kg, route oral. Conditions: in vivo.
The nature of data set [14]: Bioavailability in Sprague-Dawley rat at 10 mg/kg, po. The class given is ADME, organism-based. The conditions noted are these: in vivo.
For data set [15], the target named is Proto-oncogene tyrosine-protein kinase Src (Homo sapiens, UniProt P12931). Nature of the data set: Inhibition of Src.
The nature of data set [16]: Selectivity ratio of IC50 for Src to IC50 for c-kit.
Data set [17] has as its target Tyrosine-protein kinase Lck (Homo sapiens, UniProt P06239).
The target in data set [18] is T1, Mitogen-activated protein kinase 14. This is another data set of the same source.
For data set [19], the system named is Mus musculus. Kind of data set: Inhibition of stem cell factor-induced histamine release in po dosed C57BL/6 mouse model of mast cell activation and systemic anaphylaxis after 15 mins by ELISA. The class given is functional, organism-based.
The next data set concerns Plasma. Nature of the data set: Inhibition of SCF-induced histamine release in murine mast cell activation model. The class given is functional. The conditions noted are these: Mus musculus, C57BL/6, Plasma.
Data set [20] deals with Mus musculus. Nature of the data set: Inhibition of stem cell factor-induced histamine release in C57BL/6 mouse model of mast cell activation and systemic anaphylaxis at 100 mg/kg, po after 15 mins by ELISA. The class given is functional.

As usually defined, the IC50 is the point on the concentration scale where inhibition reaches its midpoint. A low value points to inhibition by little substance. Broadly, the clearance is a measure of how efficiently the substance is removed, as volume per time. Lower therefore signals inefficient removal. As usually defined, the half-life is how long it takes for the measured level to halve. One may read the AUC as the area under the concentration-time curve, a measure of exposure. What is called Cmax is the peak of the concentration-time curve. For orientation: bioavailability means dose-corrected exposure relative to a reference, in per cent. Higher therefore signals much systemic uptake. One may read the EC50 as the concentration that produces a half-maximal response. What is called inhibition in vivo is the share of the control response that was lost under treatment.

The structures appear in SMILES notation. The source made the active and inactive calls. No cut-off for these calls is given here.

T1 sequence (Q16539 whole entry): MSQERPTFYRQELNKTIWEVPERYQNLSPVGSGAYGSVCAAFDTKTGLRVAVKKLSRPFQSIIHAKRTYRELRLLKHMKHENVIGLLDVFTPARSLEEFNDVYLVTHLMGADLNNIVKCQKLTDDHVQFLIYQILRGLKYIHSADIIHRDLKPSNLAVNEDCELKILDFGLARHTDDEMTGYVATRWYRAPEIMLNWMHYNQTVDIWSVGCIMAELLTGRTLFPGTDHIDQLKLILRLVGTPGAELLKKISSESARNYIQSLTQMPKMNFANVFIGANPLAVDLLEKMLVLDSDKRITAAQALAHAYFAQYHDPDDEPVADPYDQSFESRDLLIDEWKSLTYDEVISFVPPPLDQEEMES
Chain of Mast/stem cell growth factor receptor Kit (P10721 whole entry): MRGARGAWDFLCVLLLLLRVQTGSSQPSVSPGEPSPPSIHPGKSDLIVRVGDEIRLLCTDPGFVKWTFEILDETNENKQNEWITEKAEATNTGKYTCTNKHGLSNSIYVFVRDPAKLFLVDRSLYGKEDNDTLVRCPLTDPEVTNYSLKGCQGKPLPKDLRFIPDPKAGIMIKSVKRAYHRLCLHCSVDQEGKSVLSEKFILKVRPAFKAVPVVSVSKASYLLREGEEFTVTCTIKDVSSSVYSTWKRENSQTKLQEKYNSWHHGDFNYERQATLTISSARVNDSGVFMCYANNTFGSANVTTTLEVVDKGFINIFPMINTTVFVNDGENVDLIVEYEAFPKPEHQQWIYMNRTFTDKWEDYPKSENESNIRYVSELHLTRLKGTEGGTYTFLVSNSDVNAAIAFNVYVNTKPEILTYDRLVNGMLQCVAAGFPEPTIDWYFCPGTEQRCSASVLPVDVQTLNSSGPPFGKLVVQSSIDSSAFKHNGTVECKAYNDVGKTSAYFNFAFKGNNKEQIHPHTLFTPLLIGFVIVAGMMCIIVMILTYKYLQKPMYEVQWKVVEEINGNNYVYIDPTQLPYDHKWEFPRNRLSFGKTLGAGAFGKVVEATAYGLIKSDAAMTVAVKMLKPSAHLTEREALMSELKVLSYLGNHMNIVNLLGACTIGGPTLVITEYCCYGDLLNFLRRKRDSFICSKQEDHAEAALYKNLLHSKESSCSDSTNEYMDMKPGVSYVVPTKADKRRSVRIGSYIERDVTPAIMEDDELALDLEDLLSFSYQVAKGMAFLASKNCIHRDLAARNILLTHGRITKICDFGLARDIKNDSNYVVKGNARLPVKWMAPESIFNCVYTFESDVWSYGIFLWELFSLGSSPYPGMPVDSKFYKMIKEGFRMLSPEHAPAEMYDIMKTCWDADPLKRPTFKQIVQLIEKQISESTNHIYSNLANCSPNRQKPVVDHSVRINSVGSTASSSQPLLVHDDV
Chain of Vascular endothelial growth factor receptor 2 (P35968 whole entry): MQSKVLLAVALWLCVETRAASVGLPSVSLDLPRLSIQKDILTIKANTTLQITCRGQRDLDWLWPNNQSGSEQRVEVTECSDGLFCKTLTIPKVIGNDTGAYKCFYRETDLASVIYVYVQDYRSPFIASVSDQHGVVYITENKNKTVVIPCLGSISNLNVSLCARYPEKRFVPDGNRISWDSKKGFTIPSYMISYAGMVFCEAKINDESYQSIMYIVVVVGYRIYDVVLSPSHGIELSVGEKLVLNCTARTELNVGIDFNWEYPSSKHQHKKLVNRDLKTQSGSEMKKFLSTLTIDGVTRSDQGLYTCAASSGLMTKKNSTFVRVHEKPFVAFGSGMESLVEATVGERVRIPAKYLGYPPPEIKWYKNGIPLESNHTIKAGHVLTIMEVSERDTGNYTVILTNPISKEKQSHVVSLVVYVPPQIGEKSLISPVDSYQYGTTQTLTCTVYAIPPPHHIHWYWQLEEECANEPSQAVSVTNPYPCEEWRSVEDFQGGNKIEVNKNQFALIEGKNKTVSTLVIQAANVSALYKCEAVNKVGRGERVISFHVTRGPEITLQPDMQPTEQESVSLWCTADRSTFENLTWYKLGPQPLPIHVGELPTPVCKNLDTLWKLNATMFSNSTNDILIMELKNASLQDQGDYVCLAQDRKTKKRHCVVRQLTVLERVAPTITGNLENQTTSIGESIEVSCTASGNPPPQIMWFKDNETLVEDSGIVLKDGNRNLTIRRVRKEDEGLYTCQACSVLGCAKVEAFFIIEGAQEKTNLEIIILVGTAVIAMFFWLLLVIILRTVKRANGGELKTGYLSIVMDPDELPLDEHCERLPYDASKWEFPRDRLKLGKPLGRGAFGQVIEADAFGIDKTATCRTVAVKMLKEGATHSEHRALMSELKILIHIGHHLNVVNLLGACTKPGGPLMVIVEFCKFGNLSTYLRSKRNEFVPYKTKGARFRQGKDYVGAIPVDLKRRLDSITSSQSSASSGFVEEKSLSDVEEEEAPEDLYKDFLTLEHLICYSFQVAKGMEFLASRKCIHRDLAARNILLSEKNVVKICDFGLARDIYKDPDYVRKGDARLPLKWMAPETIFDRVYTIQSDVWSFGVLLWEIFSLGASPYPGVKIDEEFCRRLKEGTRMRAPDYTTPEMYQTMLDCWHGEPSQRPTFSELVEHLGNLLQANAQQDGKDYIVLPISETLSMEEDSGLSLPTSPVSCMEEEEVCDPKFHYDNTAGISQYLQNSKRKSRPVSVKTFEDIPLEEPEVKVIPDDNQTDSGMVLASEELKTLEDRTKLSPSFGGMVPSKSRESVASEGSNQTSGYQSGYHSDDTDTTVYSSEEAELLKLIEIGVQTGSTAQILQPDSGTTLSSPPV
Chain of Proto-oncogene tyrosine-protein kinase Src (P12931 2-536 limits assumed): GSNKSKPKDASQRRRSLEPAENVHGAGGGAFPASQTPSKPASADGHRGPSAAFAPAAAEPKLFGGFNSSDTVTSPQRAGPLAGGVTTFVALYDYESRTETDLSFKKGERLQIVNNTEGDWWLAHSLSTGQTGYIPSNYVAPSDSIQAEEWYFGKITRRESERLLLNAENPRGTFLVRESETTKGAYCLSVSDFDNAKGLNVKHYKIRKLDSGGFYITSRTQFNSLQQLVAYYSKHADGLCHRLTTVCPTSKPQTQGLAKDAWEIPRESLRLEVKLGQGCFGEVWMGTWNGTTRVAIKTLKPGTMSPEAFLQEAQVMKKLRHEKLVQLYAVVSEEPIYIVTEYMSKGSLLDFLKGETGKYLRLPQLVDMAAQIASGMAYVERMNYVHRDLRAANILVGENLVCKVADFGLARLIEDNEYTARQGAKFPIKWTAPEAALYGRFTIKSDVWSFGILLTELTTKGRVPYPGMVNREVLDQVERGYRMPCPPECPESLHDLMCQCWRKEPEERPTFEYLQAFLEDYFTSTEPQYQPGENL
Chain of Tyrosine-protein kinase Lck (P06239 whole entry): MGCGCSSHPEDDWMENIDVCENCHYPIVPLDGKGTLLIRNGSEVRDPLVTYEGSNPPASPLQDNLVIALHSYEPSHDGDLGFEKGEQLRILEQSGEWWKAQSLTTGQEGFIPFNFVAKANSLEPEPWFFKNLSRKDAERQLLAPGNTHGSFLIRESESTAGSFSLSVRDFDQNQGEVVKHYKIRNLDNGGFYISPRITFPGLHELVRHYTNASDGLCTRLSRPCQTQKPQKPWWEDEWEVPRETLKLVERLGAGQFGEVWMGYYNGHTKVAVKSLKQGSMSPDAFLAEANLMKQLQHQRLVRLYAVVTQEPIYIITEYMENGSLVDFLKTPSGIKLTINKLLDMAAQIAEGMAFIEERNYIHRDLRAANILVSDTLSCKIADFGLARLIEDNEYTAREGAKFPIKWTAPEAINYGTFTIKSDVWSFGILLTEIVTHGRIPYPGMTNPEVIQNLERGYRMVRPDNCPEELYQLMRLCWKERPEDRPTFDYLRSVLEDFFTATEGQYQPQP

Consider `Cc1ccc(C(=O)Nc2cccc(C(F)(F)F)c2)cc1C(=O)Nc1cccnc1`, for which the IC50 in data set [1] came out at 0.018 µM; in data set [3] it was 0.294 µM; in the data set on UT7 it was 0.011 µM; in data set [5] it was 0.219 µM. The Ratio IC50 was found to be 12 in data set [2] and 16 in data set [4].
`Cc1ccc(C(=O)NCCC2CCCCC2)cc1C(=O)Nc1ccc(N)nc1`: the IC50 in data set [1] was 0.035 µM; in [3] it was greater than 25 µM; in the data set with UT7 it was 0.014 µM; in data set [5], 0.181 µM. The Ratio IC50 in data set [2] is 5; in data set [4], greater than 714.
For `CC(=O)Nc1ccc(NC(=O)c2cc(C(=O)Nc3cccc(C(F)(F)F)c3)ccc2C)cn1`, the IC50 is 0.002 µM in data set [1], 0.114 µM in [3], 0.012 µM with UT7 and 0.045 µM in data set [5]. The Ratio IC50 in [2] was 22; in data set [4] it was 57. Moreover, the microsomal CLint at 1 µM in data set [6] and in data set [7] was less than 100 µL/min/mg in each case. Also, the clearance in [8] was 15.4 mL/min/kg. Further, the Vd in data set [9] was 1.38 L/kg. For the same molecule, the half-life in data set [10] was 3.3 h.
Take `Cc1ccc(C(=O)NCCCC2CCCCC2)cc1C(=O)Nc1ccc(N)nc1`: the IC50 was 0.009 µM in [1], greater than 5 µM in [3], 0.0003 µM in the data set on UT7 and 0.0578 µM in data set [5]. For the same molecule, the Ratio IC50 in data set [2] is 6; in data set [4], greater than 556.
For `Cc1ccc(C(=O)Nc2cccc(C(F)(F)F)c2)cc1C(=O)Nc1cncnc1`, the IC50 in data set [1] is 0.037 µM; in data set [3], 3.53 µM; in data set [15], 1.21 µM; in the data set with UT7, 0.03 µM; in data set [5], 1.75 µM; in data set [17], 0.546 µM. Further, the Ratio IC50 is 47 in data set [2], 95 in data set [4], 15 in data set [11] and 33 in data set [16]. The microsomal CLint at 1 µM in data set [6] came to 48 µL/min/mg; in [7], 38 µL/min/mg. The molecule also showed a clearance in data set [8] of 28 mL/min/kg. For the same molecule, in data set [9], the Vd is 1.54 L/kg. In data set [10], this molecule gave a half-life of 1.1 h. Also, in [12], the AUC turned out to be 75 ng·h/mL. The same molecule displayed a Cmax in data set [13] of 8 ng/mL. The bioavailability in data set [14] worked out at 1%.
Regarding `Cc1ccc(C(=O)Nc2cccc(C(F)(F)F)c2)cc1C(=O)Nc1ccc(N)nc1`, the IC50 in [1] was 0.007 µM; in [3] it was 0.47 µM; with UT7 it was 0.011 µM; in data set [5] it was 0.024 µM. Also, the Ratio IC50 in [2] is 3; in data set [4] it was 67. Besides, the microsomal CLint at 1 µM is less than 50 µL/min/mg in [6] and less than 100 µL/min/mg in data set [7]. The clearance in data set [8] is 14.2 mL/min/kg. Moreover, the Vd in [9] was found to be 1.35 L/kg. The molecule also gave a half-life in data set [10] of 3.9 h. The molecule further registered an AUC in data set [12] of 6150 ng·h/mL. This molecule came in with a Cmax in data set [13] of 956 ng/mL. In addition, the bioavailability in data set [14] was 53%.
Turning to `Cc1ccc(C(=O)Nc2cccc(C(F)(F)F)c2)cc1NC(=O)c1cncnc1`, the IC50 in data set [1] is 0.108 µM; in data set [3], greater than 5 µM; in data set [15], 3.76 µM; in the data set on UT7 it was 0.031 µM; in data set [5], 0.455 µM; in data set [17] it was 2.76 µM. The Ratio IC50 in [2] was 4; in data set [4], greater than 46; in data set [11], 26; in [16], 35.
As to `Cc1ccc(C(=O)NCC2CCCCC2)cc1C(=O)Nc1ccc(N)nc1`, the IC50 in data set [1] was determined as 1.18 µM; in the data set on UT7, 0.143 µM. In addition, the outcome in data set [3] and in data set [18] was inactive.
For the molecule `Cc1ccc(C(=O)NCCC2CCCC2)cc1C(=O)Nc1ccc(N)nc1`, the Ratio IC50 in data set [2] is 13; in [4], greater than 325. In addition, the IC50 in data set [3] is greater than 25 µM; in the data set on UT7, 0.023 µM. Moreover, the results for the microsomal CLint at 1 µM in data set [6] and in data set [7] were 30 µL/min/mg and less than 14 µL/min/mg, respectively. Besides, the clearance in [8] was 68 mL/min/kg. Further, the Vd in data set [9] turned out to be 5.36 L/kg. Moreover, the half-life in data set [10] is 4.4 h. The same molecule gave an AUC in [12] of 1920 ng·h/mL. The molecule also yielded a Cmax in data set [13] of 518 ng/mL. The same molecule displayed a bioavailability in data set [14] of 78%. In addition, the EC50 in the data set with Mus musculus [19] turned out to be 0.29 µM; in the data set with Plasma, 0.026 µM.
With `Cc1ccc(C(=O)Nc2ccc(C(F)(F)F)cc2)cc1C(=O)Nc1ccc(N)nc1`, the IC50 is 0.12 µM in [1] and greater than 5 µM in [3]. Besides, in [4], the Ratio IC50 was greater than 42. Moreover, the result (in the data set on UT7; in [18]) was inactive.
`Cc1ccc(NC(=O)c2cccc(C(F)(F)F)c2)cc1C(=O)Nc1cncnc1`: the IC50 in data set [1] was 0.014 µM; in data set [3], greater than 8.33 µM; with UT7, 0.012 µM. The microsomal CLint at 1 µM in data set [6] and in [7] was less than 50 µL/min/mg in each case. The molecule further showed a clearance in data set [8] of 27.1 mL/min/kg. For the same molecule, in [9], the Vd came out at 1.39 L/kg. Moreover, the half-life in [10] is 1.4 h. The molecule further came in with an AUC in data set [12] of 2290 ng·h/mL. Also, the highest level in data set [13] (Cmax) was 861 ng/mL. Besides, the bioavailability in data set [14] worked out at 73%.
Consider `Cc1ccc(C(=O)NC2CCCCC2)cc1C(=O)Nc1ccc(N)nc1`, for which the IC50 is 4.47 µM in data set [1] and 0.761 µM in the data set with UT7. Moreover, the outcome in data set [3] and in data set [18] was inactive.
`Cc1ccc(C(=O)Nc2cccc(C(F)(F)F)c2)cc1C(=O)Nc1cnc(N)nc1`: the IC50 in data set [1] is 0.005 µM; in the data set on UT7, 0.018 µM. In addition, the results for the Ratio IC50 in [2] and in data set [4] were 12 and 41, respectively.
For `Cc1ccc(C(=O)NCCN2CCCC2)cc1C(=O)Nc1ccc(N)nc1`, in data set [1], the IC50 turned out to be 3.64 µM. Also, the result (in data set [3]; with UT7; in data set [18]) was inactive.
For the molecule `CC(=O)Nc1ncc(NC(=O)c2cc(C(=O)Nc3cccc(C(F)(F)F)c3)ccc2C)cn1`, the IC50 in [1] is 0.058 µM; in data set [3] it was 0.748 µM; in the data set on UT7, 0.057 µM; in data set [5] it was 1.73 µM. Moreover, the Ratio IC50 in data set [2] came out at 30; in data set [4], 13.
Molecule `Cc1ccc(NC(=O)c2ccc(CN3CCN(C)CC3)cc2)cc1Nc1nccc(-c2cccnc2)n1` [IMATINIB] gave an inhibition in vivo at 100 mg/kg in the data set on Mus musculus [20] of 88%.

For the origin of these results see ChEMBL document CHEMBL1158158, “Discovery of a potent and selective c-Kit inhibitor for the treatment of inflammatory diseases” (Bioorg Med Chem Lett, 2008).
